Results from article PMC4976316, “A pivotal role of vacuolar H^+-ATPase in regulation of lipid production in Phaeodactylum tricornutum” (Scientific Reports, 2016).

Target: T1, Vacuolar H^+-ATPase (V-ATPase) (Phaeodactylum tricornutum, UniProt B7G3I2+B7GCN4)
T1 construct: gene PHATRDRAFT_16442; native complex in microsomal membrane protein from algal cells, not purified; subunit genes not identified; with V-type proton ATPase subunit a; V-type proton ATPase catalytic subunit A; V-type proton ATPase subunit B; V-type proton ATPase subunit C; V-type proton ATPase subunit D; V-type proton ATPase subunit E; V-type proton ATPase subunit F; V-type proton ATPase subunit G; V-type proton ATPase subunit H; V-type proton ATPase subunit d
Assay: concanamycin A-sensitive ATPase activity (phosphate release) of microsomal membranes
Format: cell-based
Conditions: 100 nM BFA1 added to the growing culture, enzyme assayed afterwards in microsomes; days-long treatment, indirect effects possible

Compound: CO/C1=C\C(C)=C\[C@@H](C)[C@@H](O)[C@@H](C)C/C(C)=C/C=C/[C@H](OC)[C@@H]([C@@H](C)[C@@H](O)[C@H](C)[C@@]2(O)C[C@@H](O)[C@H](C)[C@@H](C(C)C)O2)OC1=O [BFA1, bafilomycin A1]
- % decrease of V-ATPase activity at 100 nM: ~ 66%
